Experimental data: patent publication US20190328755A1, “METHODS OF TREATING COMPLEX REGIONAL PAIN SYNDROME (CRPS) OR SYMPTOMS COMPRISING ADMINISTRATION OF […]” (GRUNENTHAL GMBH, priority 2018, published 2019)

Test system: subjects with CRPS
Assay: Open-label single-arm Phase III trial of intravenous neridronic acid, average pain intensity (11-point NRS)
Format: in vivo, human
Settings: subjects with CRPS duration >2 years; 400 mg i.v. cumulative, 4 infusions of 240 min; interim look
Procedure: A multi-site, open-label, single-arm, Phase III safety trial of intravenous neridronic acid at a cumulative dose of 400 mg was conducted in subjects with CRPS to investigate the safety and tolerability of intravenous neridronic acid in subjects with CRPS.
The trial product was supplied in glass vials, each containing 111.2 mg sodium neridronate hemihydrate (equivalent to 100 mg neridronic acid) in a total volume of 8 mL. For each infusion, before use, the trial product was diluted in sterile normal saline (0.9% NaCl, e.g., United States Pharmacopeia (USP) grade saline for injection) to a volume of approximately 500 mL and administered by slow intravenous infusion (240 minutes [maximum 260 minutes]) at day 1, day 4, day 7 and day 10, resulting in a total dose of 400 mg neridronic acid.
In addition, the trial provided supportive data on efficacy and long-term effectiveness of neridronic acid of 400 mg. Average, worst (both with a 24-hour recall period) and current pain intensity was measured at the trial visits using an 11-point numerical rating scale on a tablet computer.
The trial included an enrollment period lasting up to 60 days, a treatment period consisting of 4 infusions of neridronic acid over 10 days, and a follow-up period of approximately 50 weeks. […]

## NCCCCCC(O)(P(=O)(O)O)P(=O)(O)O [neridronic acid]
  mean (standard deviation) change from baseline to Day 84 in average pain intensity (NRS): −1.22 (2.197)
